Source: ChEMBL document CHEMBL1201862, “PubChem BioAssay data set” (2004)
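1) Cells in 96-well plates. 2) Compound, 48 h, 5 concentrations. 3) Linear interpolation between surrounding doses. 4) Unreached endpoint = highest concentration. GI50: concentration for 50% inhibition of growth.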 The source made the active and inactive calls. Cut-off read from the data, not from the text of the source: active = GI50 up to about 1.1 µM and inactive = higher.

Assays:
Test in all cases: NCI anticancer screen, dose series, 48 h
ACHN = system: ACHN
DLD-1 = system: DLD-1
HT-29 = system: HT-29
MOLT-4 = system: MOLT-4
Malme-3M = system: Malme-3M
NCI-H226 = system: NCI-H226
NCI-H23 = system: NCI-H23
NCI-H460 = system: NCI-H460
RXF 393 = system: RXF 393
SF-539 = system: SF-539
SK-MEL-5 = system: SK-MEL-5
SK-OV-3 = system: SK-OV-3
SN12C = system: SN12C
SNB-19 = system: SNB-19
SNB-75 = system: SNB-75
SNB-78 = system: SNB-78
TK-10 = system: TK-10
U-251 = system: U-251
UACC-257 = system: UACC-257
XF498 = system: XF498

Measured: GI50

CN(C)CCCNC(=O)c1cccc2ccccc12
inactive: ACHN > 100 µM | DLD-1 > 100 µM | HT-29 > 100 µM | MOLT-4 > 100 µM | Malme-3M > 100 µM | NCI-H226 > 100 µM | NCI-H23 > 100 µM | NCI-H460 > 100 µM | RXF 393 > 100 µM | SF-539 > 100 µM | SK-MEL-5 > 100 µM | SK-OV-3 > 100 µM | SN12C > 100 µM | SNB-19 > 100 µM | SNB-75 > 100 µM | SNB-78 > 100 µM | TK-10 > 100 µM | U-251 > 100 µM | UACC-257 > 100 µM | XF498 > 100 µM
